Reference: patent EP2257297B1, “COMPOUNDS FOR USE IN THE TREATMENT OF ACNE, SEBORRHOEA AND SEBHORROEIC DERMATITIS, OR FOR REDUCING SEBUM SECRETION” (priority 2008, dated 2009)

Biological target: T1, human MC5R (Homo sapiens, UniProt P33032)
T1 construct: purchased Perkin Elmer RBXMC5M400UA
Assay: Human MC5R radioligand binding assay ([125I] NDP-MSH displacement, hMC5R membranes)
Settings: hMC5R assay as in Example 102; compounds tested as trifluoroacetate or hydrochloride salts, or as free base
Method: After incubation for 10 mins the phosphate buffer containing the iodine was added to NDP-MSH (10 ul at 1 mg/mL) in a separate eppendorf tube. This was incubated for a further 10 mins.
Resuspended membranes were kept on ice until they were added to the wells of the plate.
Assays were performed in 96 well polypropylene plates. […] This was incubated for 1 hr at 37 °C. Non-specific binding was determined with […] NDP-MSH. Plates were filtered using a Tomtec cell harvester with GF/A filters (Wallac) (presoaked in 0.6% polyethylenimine) and washed three times with 1.0 mL ice-cold wash buffer (the above incubation buffer without 1,10-phenanthroline and Complete™ protease inhibitor tablet). The filters were dried in a 37 °C oven, placed in a sample bag and 5 mL Betaplatescint (Wallac) was added. Prepared filters were counted in cassettes in a Microbeta Trilux (Wallac) for 1 min. […] Data analysis was performed using GraphPad Prism 4, employing competition binding with a single site model and a fixed Hill coefficient. The following equation was used: Y = Bottom + (Top-Bottom)/1/10^(X-logEC50), where X = log(concentration) and Y = binding to fit the data.

T1 sequence (P33032 whole entry): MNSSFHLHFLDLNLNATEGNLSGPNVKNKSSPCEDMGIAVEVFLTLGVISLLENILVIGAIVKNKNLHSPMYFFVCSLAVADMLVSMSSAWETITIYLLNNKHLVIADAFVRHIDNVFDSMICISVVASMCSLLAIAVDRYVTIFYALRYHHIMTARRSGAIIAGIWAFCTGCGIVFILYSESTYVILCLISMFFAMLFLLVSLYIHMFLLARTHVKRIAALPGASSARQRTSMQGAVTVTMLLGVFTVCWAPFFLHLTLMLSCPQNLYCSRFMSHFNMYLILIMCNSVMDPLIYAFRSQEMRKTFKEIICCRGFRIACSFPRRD

IC50	SMILES
< 100 nM	N=C(N)NCCC[C@@H]1N[C@H](CNC(=O)/C=C/c2cccs2)CCN(CC(c2ccccc2)c2ccccc2)C1=O [Compound 167, (E)-N-(((3S,5S)-1-(2,2-diphenylethyl)-3-(3-guanidinopropyl)-2-oxo-1,4-diazepan-5-yl)methyl)-3-(thiophen-2-yl)acrylamide]
< 1000 nM	N=C(N)NCCC[C@@H]1N[C@H](CNC(=O)[C@H]2COc3ccccc3O2)CCN(CC(c2ccccc2)c2ccccc2)C1=O [Compound 168, (R)-N-(((3S,5S)-1-(2,2-diphenylethyl)-3-(3-guanidinopropyl)-2-oxo-1,4-diazepan-5-yl)methyl)-2,3-dihydrobenzo[b][1,4]dioxine-2-carboxamide]
< 1000 nM	N=C(N)NCCC[C@@H]1N[C@H](CNC(=O)/C=C/c2ccc(O)cc2)CCN(CC(c2ccccc2)c2ccccc2)C1=O [Compound 169, (E)-N-(((3S,5S)-1-(2,2-diphenylethyl)-3-(3-guanidinopropyl)-2-oxo-1,4-diazepan-5-yl)methyl)-3-(4-hydroxyphenyl)acrylamide]
< 100 nM	Cc1ccc(/C=C/C(=O)NC[C@@H]2CCN(CC(c3ccccc3)c3ccccc3)C(=O)[C@H](CCCNC(=N)N)N2)cc1 [Compound 171, (E)-N-(((3S,5S)-1-(2,2-diphenylethyl)-3-(3-guanidinopropyl)-2-oxo-1,4-diazepan-5-yl)methyl)-3-p-tolylacrylamide]
< 1000 nM	N=C(N)NCCC[C@@H]1N[C@H](CNC(=O)/C=C/c2ccccc2C(F)(F)F)CCN(CC(c2ccccc2)c2ccccc2)C1=O [Compound 172, (E)-N-(((3S,5S)-1-(2,2-diphenylethyl)-3-(3-guanidinopropyl)-2-oxo-1,4-diazepan-5-yl)methyl)-3-(2-(trifluoromethyl)phenyl)acrylamide]
< 100 nM	N=C(N)NCCC[C@@H]1N[C@H](CNC(=O)/C=C/c2cccc(F)c2)CCN(CC(c2ccccc2)c2ccccc2)C1=O [Compound 173, (E)-N-(((3S,5S)-1-(2,2-diphenylethyl)-3-(3-guanidinopropyl)-2-oxo-1,4-diazepan-5-yl)methyl)-3-(3-fluorophenyl)acrylamide]
< 100 nM	N=C(N)NCCC[C@@H]1N[C@H](CNC(=O)COc2ccc(Cl)cc2Cl)CCN(CC(c2ccccc2)c2ccccc2)C1=O [Compound 176, 2-(2,4-dichlorophenoxy)-N-(((3S,5S)-1-(2,2-diphenylethyl)-3-(3-guanidinopropyl)-2-oxo-1,4-diazepan-5-yl)methyl)acetamide]
< 100 nM	N=C(N)NCCC[C@@H]1N[C@H](CNC(=O)/C=C/c2cccc(Cl)c2)CCN(CC(c2ccccc2)c2ccccc2)C1=O [Compound 177, (E)-3-(3-chlorophenyl)-N-(((3S,5S)-1-(2,2-diphenylethyl)-3-(3-guanidinopropyl)-2-oxo-1,4-diazepan-5-yl)methyl)acrylamide]
< 1000 nM	N=C(N)NCCC[C@@H]1N[C@H](CNC(=O)c2ccc3ncsc3c2)CCN(CC(c2ccccc2)c2ccccc2)C1=O [Compound 178, N-(((3S,5S)-1-(2,2-diphenylethyl)-3-(3-guanidinopropyl)-2-oxo-1,4-diazepan-5-yl)methyl)benzo[d]thiazole-6-carboxamide]
< 1000 nM	N=C(N)NCCC[C@@H]1N[C@H](CNC(=O)c2ccc(-c3ccccc3)o2)CCN(CC(c2ccccc2)c2ccccc2)C1=O [Compound 179, N-(((3S,5S)-1-(2,2-diphenylethyl)-3-(3-guanidinopropyl)-2-oxo-1,4-diazepan-5-yl)methyl)-5-phenylfuran-2-carboxamide]
< 1000 nM	COc1cccc(/C=C/C(=O)NC[C@@H]2CCN(CC(c3ccccc3)c3ccccc3)C(=O)[C@H](CCCNC(=N)N)N2)c1 [Compound 180, (E)-N-(((3S,5S)-1-(2,2-diphenylethyl)-3-(3-guanidinopropyl)-2-oxo-1,4-diazepan-5-yl)methyl)-3-(3-methoxyphenyl)acrylamide]
< 10 nM	N=C(N)NCCC[C@@H]1N[C@H](CNC(=O)c2ccc3cc(Br)ccc3c2)CCN(CC(c2ccccc2)c2ccccc2)C1=O [Compound 181, 6-bromo-N-(((3S,5S)-1-(2,2-diphenylethyl)-3-(3-guanidinopropyl)-2-oxo-1,4-diazepan-5-yl)methyl)-2-naphthamide]
< 1000 nM	N=C(N)NCCC[C@@H]1N[C@H](CNC(=O)c2ccc3ccccc3c2)CCN(CCc2ccccc2)C1=O [Compound 182, N-(((3S,5S)-3-(3-guanidinopropyl)-2-oxo-1-phenethyl-1,4-diazepan-5-yl)methyl)-2-naphthamide]
< 100 nM	N=C(N)NCCC[C@@H]1N[C@H](CNC(=O)c2ccc3sccc3c2)CCN(CC(c2ccccc2)c2ccccc2)C1=O [Compound 185, N-(((3S,5S)-1-(2,2-diphenylethyl)-3-(3-guanidinopropyl)-2-oxo-1,4-diazepan-5-yl)methyl)benzo[b]thiophene-5-carboxamide]
< 100 nM	Cc1c(C(=O)NC[C@@H]2CCN(CC(c3ccccc3)c3ccccc3)C(=O)[C@H](CCCNC(=N)N)N2)cnn1-c1ccccc1 [Compound 186, N-(((3S,5S)-1-(2,2-diphenylethyl)-3-(3-guanidinopropyl)-2-oxo-1,4-diazepan-5-yl)methyl)-5-methyl-1-phenyl-1H-pyrazole-4-carboxamide]
< 100 nM	COc1ccc(/C=C/C(=O)NC[C@@H]2CCN(CC(c3ccccc3)c3ccccc3)C(=O)[C@H](CCCNC(=N)N)N2)cc1 [Compound 187, (E)-N-(((3S,5S)-1-(2,2-diphenylethyl)-3-(3-guanidinopropyl)-2-oxo-1,4-diazepan-5-yl)methyl)-3-(4-methoxyphenyl)acrylamide]
< 100 nM	N=C(N)NCCC[C@@H]1N[C@H](CNC(=O)c2ccc3cc(F)ccc3c2)CCN(CC(c2ccccc2)c2ccccc2)C1=O [Compound 188, N-(((3S,5S)-1-(2,2-diphenylethyl)-3-(3-guanidinopropyl)-2-oxo-1,4-diazepan-5-yl)methyl)-6-fluoro-2-naphthamide]
< 1000 nM	N=C(N)NCCC[C@@H]1N[C@H](CNC(=O)/C=C/c2ccccc2Cl)CCN(CC(c2ccccc2)c2ccccc2)C1=O [Compound 189, (E)-3-(2-chlorophenyl)-N-(((3S,5S)-1-(2,2-diphenylethyl)-3-(3-guanidinopropyl)-2-oxo-1,4-diazepan-5-yl)methyl)acrylamide]
< 100 nM	Cc1cccc(/C=C/C(=O)NC[C@@H]2CCN(CC(c3ccccc3)c3ccccc3)C(=O)[C@H](CCCNC(=N)N)N2)c1 [Compound 191, (E)-N-(((3S,5S)-1-(2,2-diphenylethyl)-3-(3-guanidinopropyl)-2-oxo-1,4-diazepan-5-yl)methyl)-3-m-tolylacrylamide]
< 1000 nM	N=C(N)NCCC[C@@H]1N[C@H](CNC(=O)/C=C/c2cccc(C(F)(F)F)c2)CCN(CC(c2ccccc2)c2ccccc2)C1=O [Compound 192, (E)-N-(((3S,5S)-1-(2,2-diphenylethyl)-3-(3-guanidinopropyl)-2-oxo-1,4-diazepan-5-yl)methyl)-3-(3-(trifluoromethyl)phenyl)acrylamide]
< 1000 nM	N=C(N)NCCC[C@@H]1N[C@H](CNC(=O)/C=C/c2cccc(O)c2)CCN(CC(c2ccccc2)c2ccccc2)C1=O [Compound 193, (E)-N-(((3S,5S)-1-(2,2-diphenylethyl)-3-(3-guanidinopropyl)-2-oxo-1,4-diazepan-5-yl)methyl)-3-(3-hydroxyphenyl)acrylamide]
< 100 nM	N=C(N)NCCC[C@@H]1N[C@H](CNC(=O)/C=C/c2ccccc2F)CCN(CC(c2ccccc2)c2ccccc2)C1=O [Compound 194, (E)-N-(((3S,5S)-1-(2,2-diphenylethyl)-3-(3-guanidinopropyl)-2-oxo-1,4-diazepan-5-yl)methyl)-3-(2-fluorophenyl)acrylamide]
< 100 nM	Cc1ccccc1/C=C/C(=O)NC[C@@H]1CCN(CC(c2ccccc2)c2ccccc2)C(=O)[C@H](CCCNC(=N)N)N1 [Compound 195, (E)-N-(((3S,5S)-1-(2,2-diphenylethyl)-3-(3-guanidinopropyl)-2-oxo-1,4-diazepan-5-yl)methyl)-3-o-tolylacrylamide]
< 100 nM	N=C(N)NCCC[C@@H]1N[C@H](CNC(=O)/C=C/c2ccc(F)cc2)CCN(CC(c2ccccc2)c2ccccc2)C1=O [Compound 199, (E)-N-(((3S,5S)-1-(2,2-diphenylethyl)-3-(3-guanidinopropyl)-2-oxo-1,4-diazepan-5-yl)methyl)-3-(4-fluorophenyl)acrylamide]
< 100 nM	N=C(N)NCCC[C@@H]1N[C@H](CNC(=O)/C=C/c2ccc(C(F)(F)F)cc2)CCN(CC(c2ccccc2)c2ccccc2)C1=O [Compound 200, (E)-N-(((3S,5S)-1-(2,2-diphenylethyl)-3-(3-guanidinopropyl)-2-oxo-1,4-diazepan-5-yl)methyl)-3-(4-(trifluoromethyl)phenyl)acrylamide]
< 100 nM	N=C(N)NCCC[C@@H]1N[C@H](CNC(=O)/C=C/c2c(F)cccc2F)CCN(CC(c2ccccc2)c2ccccc2)C1=O [Compound 208, (E)-3-(2,6-difluorophenyl)-N-(((3S,5S)-1-(2,2-diphenylethyl)-3-(3-guanidinopropyl)-2-oxo-1,4-diazepan-5-yl)methyl)acrylamide]
< 100 nM	N=C(N)NCCC[C@@H]1N[C@H](CNC(=O)/C=C/c2c(F)cccc2Cl)CCN(CC(c2ccccc2)c2ccccc2)C1=O [Compound 209, (E)-3-(2-chloro-6-fluorophenyl)-N-(((3S,5S)-1-(2,2-diphenylethyl)-3-(3-guanidinopropyl)-2-oxo-1,4-diazepan-5-yl)methyl)acrylamide]
